Literature values as cited in patent US20020143065A1, “Developing a delivery system for multi-pharmaceutical active materials at various release rates” (priority 2000, published 2002).

What was measured:
[1] = gynecological patients, intravenous patient-controlled analgesia
[2] = compared with tramadol racemate

Compound	analgesic efficacy [1]	side effects (nausea and vomiting) [1]	opiate-like analgesic effect [2]
COc1cccc(C2(O)CCCCC2CN(C)C)c1 (racemic) [racemate, tramadol]	more efficacy than (−) tramadol enantiomer	no more side effects than (+) tramadol enantiomer	–
COc1cccc([C@@]2(O)CCCC[C@@H]2CN(C)C)c1 (single isomer, unassigned) [(+) enantiomer, (+) tramadol]	more potent in producing analgesia	produced more nausea and vomiting	considerably enhanced compared with that of tramadol
